Assay results as given in US10207985B2, “Compounds” (SYNGENTA PARTICIPATIONS AG, priority 2013, dated 2019).

Cc1ccsc1C1CC[C@H]1NC(=O)c1ccccc1C(F)(F)F (stereo partly shown) [Compound 116-4]
melting point: 111 to 112 °C
